# Legend:
# Lung cancer cells = conditions: mice; PG-TXL injected at 120 mg/kg; paclitaxel used alone; cited from earlier work
# [1] = In vivo toxicity study in healthy mice (survival, body weight); conditions: Kun Ming mice, 5 mg/kg tail vein at 0, 5 and 10 days
# Description: 20 healthy Kun Ming mice were randomly divided (10 each for male and female) into two groups. Cisplatin and γ-PGA-CDDP was individually injected in each group in a tail vein. The injections were done at 0, 5, and 10 days at 5 mg/kg. The survival and body weight of the mice were recorded. The results are shown in FIG. 10 and FIG. 11 which are comparisons of the toxicity of γ-PGA-CDDP and CDDP based on the survival of China KM mice and based on the body weight of China KM mice.
# [2] = system: Human breast cancer cells Bcap-37; experiment: Bcap-37 xenograft model, survival and body weight; assay type: in vivo, BALB/C female SKID mouse; conditions: Bcap-37 xenograft mice, equivalent of 4 mg/kg cisplatin, tail vein at 0 and 5 days
# Description: Human breast cancer cells Bcap-37 in DMEM with 10% […] were cultured at 37° C. and 5% CO2. 5×10^6 Bcap cells were injected in each of BALB/C female SKID mouse (18 mice, 4 week old, 20 g each). After 7 days the mice were randomly divided into 3 groups, 6 mice per group. The first group was treated with saline, the second group was treated with cisplatin, and the third group was treated with γ-PGA-CDDP. γ-PGA-CDDP complex (at equivalent of 4 mg/kg cisplatin) was injected in a tail vein at 0 and 5 days. The survival and body weight was recorded. The results are shown in FIG. 12 and FIG. 13 which are comparisons of the toxicity of γ-PGA-CDDP and CDDP based on the survival and body weight of BALB/C female mice.
Compound,reduction of lung cancer cells (Lung cancer cells) [%],body weight change (in vivo toxicity) [1],mice died ([1]; after 15 days) [%],body weight change (toxicity) [2]
CC(=O)O[C@H]1C(=O)[C@@]2(C)[C@H]([C@H](OC(=O)c3ccccc3)[C@]3(O)C[C@H](OC(=O)[C@H](O)[C@@H](NC(=O)c4ccccc4)c4ccccc4)C(C)=C1C3(C)C)[C@]1(OC(C)=O)CO[C@@H]1C[C@@H]2O [paclitaxel],58,,,
cis-daimminedichloroplatinum(II) [cisplatin],,reduced,90,obvious decrease of body weight

# — patent US20090105118A1, “Preparation and applications of novel complexes made by gamma-polyglutamic acid and cisplatin” (priority 2007, published 2009)
